Laboratory results reported in patent US5576334A, “Acylurea derivatives” (Zeneca Limited, priority 1993, dated 1996).

Assays:
[1] = system: aggregation of human blood platelets; test: test (a) modified, ex vivo after oral dosing to dogs; type: in vivo; settings: 1 mg/kg
Method: Test (a) may be modified so as to assess the effects of a test compound ex vivo on the aggregation of human blood platelets after administration of the test compound to a laboratory animal, such as a rat, rabbit, guinea pig, mouse or dog. For example, groups of four male, fasted Alderley Park Wistar rats are orally dosed with a test compound or appropriate vehicle, and at suitable time intervals (1, 3, 5 and 8 hours after dosing) animals are anaesthetised with fluothane and bled by heart puncture. Blood is collected into 3.2% citrate (1 part to 9 parts whole blood) and platelet poor plasma (ppp) prepared by centrifugation (4500×g for 10 minutes). […]
Equal volumes (125 μl) of rat ppp and human prp are mixed together, ADP added, and the whole incubated (37° C.) and stirred (900 rpm) in a BioData platelet aggregometer. Aggregation is induced with ADP and agonist EC50 values calculated for human prp/rat ppp mixtures from animals dosed with test compound or vehicle. A mean concentration ratio (concentration of ADP required to cause a 50% aggregation response in human prp/rat ppp mixtures from animals dosed with antagonist, divided by the concentration of ADP to cause 50% aggregation in human prp/rat ppp mixtures from animals dosed with vehicle) is calculated at each time point.

[2] = biological target: T1, purified human platelet fibrinogen receptor (GPIIb/IIIa) (Homo sapiens, UniProt P05106+P08514); test: test (b): GPIIb/IIIa ELISA, inhibition of biotinylated fibrinogen binding; settings: biotinylated fibrinogen 10 nM, read-out: pIC50 (-log(IC50)), inhibition of biotinylated fibrinogen binding in test (b) (converted)
T1 construct: Glycoprotein IIb/IIIa is isolated from human platelet lysates; from tissue
Method: (i) Preparation of human platelet lysates. Platelet rich plasma (PRP) is harvested by centrifugation (1000 rpm, 15 minutes) of whole blood anticoagulated with acid citrate dextrose (trisodium citrate 85 mM, citric acid 70 mM, d-glucose 110 mM) 1 part to 6 parts blood. Prostacyclin (PGI2, 1 μM) is added to the PRP before centrifugation (2400 rpm, 15 mins) and the resulting pellet is resuspended in modified Tyrodes' solution (NACl 130 mM, […], NaHCO3 12 mM, NaH2 PO4 0.5 mM, MgCl2 1 mM, […], Glucose 12 mM, HEPES 5 mM) containing bovine serum albumin 3.5 g/L, PGI2 1 μM and hirudin 0.5 U/ml. The platelet suspension is centrifuged (2400 rpm, 15 minutes) and the resultant pellet resuspended in 500 μl of lysis buffer (octyl glucoside 50 mM, HEPES 10 mM, NaCl 150 mM, CaCl2 1 mM, MgCl2 1 mM, PMSF 1 mM, NEM 10 mM, leupeptin 0.1 mM), agitated at 4° C. for 15 minutes then centrifuged at 24000 rpm, 15 minutes. The supernatant is stored at 4° C. and the pellet re-suspended in 500 μl of lysis buffer. […]
(iii) GPIIb/IIIa ELISA 96 well microtitre plates are coated with 100 μl purified human platelet fibrinogen receptor (GPIIb/IIIa) diluted in coating buffer (Tris-HCl 20 mM, NaCl 150 mM, CaCl2 1 mM, pH7.4) and left overnight at 4° C. […] Colour is allowed to develop for 10-15 minutes before optical densities are read at 650 nm. […]

[3] = system: ADP stimulated platelet aggregation in human, citrated, platelet-rich plasma; test: test (a): inhibition of ADP-induced aggregation of human platelet-rich plasma (Born); type: cell-based; settings: ADP as agonist
From the text: (i) aggregating human, citrated, platelet-rich plasma by addition of adenosine diphosphate (ADP) so as to generate a dose-response curve;
(ii) generating a dose-response curve for ADP stimulated platelet aggregation in the presence of increasing amounts of a test compound (generally in the range 10^-5 M to 10^-10 M); and
(iii) calculating a pA2 value indicating potency of platelet aggregation inhibition for the test compound, averaged over several concentrations, from the calculated 50% response value for ADP aggregation in the presence and absence of the test compound.

T1 sequence (P08514 32-887 limits assumed): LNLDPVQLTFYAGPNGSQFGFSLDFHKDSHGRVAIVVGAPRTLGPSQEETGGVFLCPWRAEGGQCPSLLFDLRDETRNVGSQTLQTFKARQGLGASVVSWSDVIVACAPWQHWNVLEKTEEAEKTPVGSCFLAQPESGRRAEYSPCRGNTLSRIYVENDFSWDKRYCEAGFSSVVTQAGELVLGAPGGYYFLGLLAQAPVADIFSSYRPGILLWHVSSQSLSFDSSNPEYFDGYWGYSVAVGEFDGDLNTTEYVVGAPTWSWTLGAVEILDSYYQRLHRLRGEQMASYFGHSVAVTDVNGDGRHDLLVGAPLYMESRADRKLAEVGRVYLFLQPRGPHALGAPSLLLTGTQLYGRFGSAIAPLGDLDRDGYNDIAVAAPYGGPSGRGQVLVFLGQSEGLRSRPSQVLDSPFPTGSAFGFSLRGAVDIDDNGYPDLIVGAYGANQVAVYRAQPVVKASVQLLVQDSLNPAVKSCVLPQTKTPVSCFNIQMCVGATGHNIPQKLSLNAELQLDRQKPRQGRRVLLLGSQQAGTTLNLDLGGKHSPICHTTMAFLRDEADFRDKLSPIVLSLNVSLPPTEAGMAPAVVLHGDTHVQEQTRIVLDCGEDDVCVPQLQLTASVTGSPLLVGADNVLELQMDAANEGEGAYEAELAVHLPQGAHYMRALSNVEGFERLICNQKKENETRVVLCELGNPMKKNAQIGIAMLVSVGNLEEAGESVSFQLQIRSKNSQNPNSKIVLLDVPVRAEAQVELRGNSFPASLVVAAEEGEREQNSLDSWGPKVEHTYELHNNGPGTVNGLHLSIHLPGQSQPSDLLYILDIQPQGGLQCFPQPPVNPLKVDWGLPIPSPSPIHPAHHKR
T1 sequence (P08514 891-1039 limits assumed): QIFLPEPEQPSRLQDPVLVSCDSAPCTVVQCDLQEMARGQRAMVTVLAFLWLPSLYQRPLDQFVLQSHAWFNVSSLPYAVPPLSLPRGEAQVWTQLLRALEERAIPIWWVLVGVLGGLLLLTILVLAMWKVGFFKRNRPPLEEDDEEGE
T1 sequence (P05106 27-788): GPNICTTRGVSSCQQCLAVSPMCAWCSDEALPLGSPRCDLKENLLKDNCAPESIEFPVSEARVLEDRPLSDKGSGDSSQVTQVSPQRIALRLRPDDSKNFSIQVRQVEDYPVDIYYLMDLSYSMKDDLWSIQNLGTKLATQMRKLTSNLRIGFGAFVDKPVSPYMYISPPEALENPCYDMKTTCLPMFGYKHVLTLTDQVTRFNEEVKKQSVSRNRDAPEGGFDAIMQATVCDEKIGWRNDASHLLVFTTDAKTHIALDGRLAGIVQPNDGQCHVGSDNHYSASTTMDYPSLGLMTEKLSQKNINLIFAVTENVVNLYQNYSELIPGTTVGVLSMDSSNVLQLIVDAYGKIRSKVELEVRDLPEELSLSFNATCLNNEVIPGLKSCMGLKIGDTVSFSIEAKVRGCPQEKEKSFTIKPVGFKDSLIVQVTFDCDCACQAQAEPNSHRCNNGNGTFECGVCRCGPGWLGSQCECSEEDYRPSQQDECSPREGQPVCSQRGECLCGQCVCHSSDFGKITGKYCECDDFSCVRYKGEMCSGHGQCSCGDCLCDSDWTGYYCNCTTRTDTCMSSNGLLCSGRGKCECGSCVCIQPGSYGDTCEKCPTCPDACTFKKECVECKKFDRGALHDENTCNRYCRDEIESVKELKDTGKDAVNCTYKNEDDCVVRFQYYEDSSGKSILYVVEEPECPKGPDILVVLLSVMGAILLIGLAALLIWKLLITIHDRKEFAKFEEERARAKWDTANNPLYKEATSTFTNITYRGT

SMILES | duration of activity when dosed orally [1] | IC50 [2] [nM] | pA2, potency of platelet aggregation inhibition in test (a) [3]
CC(C)(C)OC(=O)COc1ccc(NC(=O)NC(=O)c2ccc(C(=N)N)cc2)cc1 [Example 2, t-Butyl 4-[3-(4-amidinobenzoyl)ureido]phenoxyacetate] | up to 8 hours | – | –
N=C(N)c1ccc(C(=O)NC(=O)Nc2ccc(OCC(=O)O)cc2)cc1 [Example 3, 4-[3-(4-Amidinobenzoyl)ureido]phenoxyacetic acid] | – | 2.51 | 8.4
COC(=O)COc1ccc(NC(=O)NC(=O)c2ccc(C(=N)N)cc2)cc1 [Example 1, Methyl 4-[3-(4-amidinobenzoyl)ureido]phenoxyacetate] | – | 316 | 7.6
